Experimental data reported in paper PMC8269058, “The Odorant-Binding Proteins of the Spider Mite Tetranychus urticae” (International Journal of Molecular Sciences, 2021).

Experiments:
TurtOBP4 [1] = test: competitive fluorescence binding assay, displacement of 1-NPN; parameters: species or system Tetranychus urticae
TurtOBP1 [2] = test: as above; parameters: species or system Tetranychus urticae
TurtOBP1 [3] = test: fluorescent probe titration (blue shift) with purified recombinant protein; format: binding, Tetranychus urticae
TurtOBP4 [4] = test: as above; format: binding, Tetranychus urticae

Row | Kd (TurtOBP4 [1]) [µM] | Kd (TurtOBP1 [2]) [µM] | Structure (SMILES) | Kd (TurtOBP1 [3]) [µM] | Kd (TurtOBP4 [4]) [µM]
1 | 6.4 | 9.8 | COc1cc(/C=C/C=O)ccc1O [coniferyl aldehyde] | – | –
2 | – | – | c1ccc(Nc2cccc3ccccc23)cc1 [1-NPN] | 9.7 | 3.5
